Reference: PMC4284516 (Scientific Reports, 2015)

Assays:
[1] = biological target: T1, human recombinant MAGL (rhMAGL) (Homo sapiens, UniProt Q99685); assay: MAGL biochemical assay; details: read-out: IC50, rhMAGL; 4-nitrophenylacetate substrate; N = 3
T1 sequence (Q99685 1-303): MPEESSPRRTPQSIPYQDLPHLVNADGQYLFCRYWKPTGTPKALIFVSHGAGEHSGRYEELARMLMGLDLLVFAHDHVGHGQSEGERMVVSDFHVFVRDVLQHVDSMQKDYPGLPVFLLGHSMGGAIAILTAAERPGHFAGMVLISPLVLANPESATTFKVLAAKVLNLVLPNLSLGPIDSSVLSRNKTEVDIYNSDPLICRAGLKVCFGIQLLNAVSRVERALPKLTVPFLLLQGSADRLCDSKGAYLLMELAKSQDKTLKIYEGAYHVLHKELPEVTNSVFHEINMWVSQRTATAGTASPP

MAGL over FAAH = details: cited from earlier work
NMRI mice = assay: Y-maze test; assay type: in vivo; details: 1.5 mg/kg, i.p.
OF1 mice [2] = assay: 6-Hz electroshock-induced seizures; assay type: in vivo; details: levetiracetam 20 mg/kg i.p.
Swiss mice = assay: Novel object recognition task
OF1 mice [3] = assay: Mouse tetrad experiments; details: 15 mg/kg i.p.
mice = details: cited from earlier work
OF1 mice [4] = assay: Pentylenetetrazol; details: diazepam 3 mg/kg i.p.
OF1 mice [5] = assay: Elevated plus-maze test; details: diazepam 3 mg/kg p.o., 60 min before testing
[6] = test system: PBQ-induced writhing in OF1 mice; assay: Phenylbenzoquinone; assay type: in vivo; details: combined with SAR127303 3 mg/kg p.o.
rat hippocampal slices = assay: [3H]ACh release evoked by electrical depolarisation in hippocampal slices; assay type: cell-based, Sprague-Dawley rats; details: rimonabant 10^−7 mol/L

COc1ccc2c(C3COC(CCCNC(=O)OCC(N)=O)OC3)cccc2c1 (stereo not shown) [SSR411298]
IC50 [1]: > 10 µM

O=C(OC(C(F)(F)F)C(F)(F)F)N1CCC(C(O)(c2ccc3c(c2)OCO3)c2ccc3c(c2)OCO3)CC1 [KML29]
selectivity for MAGL over FAAH and most other serine hydrolases (MAGL over FAAH): > 100 fold

c1ccc(C2(N3CCCCC3)CCCCC2)cc1 [PCP]
spontaneous alternation versus vehicle (NMRI mice): significant reduction

CC[C@@H](C(N)=O)N1CCCC1=O [levetiracetam]
protection in the 6-Hz test (OF1 mice [2]): full protection

C[C@]12N[C@H](Cc3ccccc31)c1ccccc12 [MK-801]
novelty index ratio versus control vehicle (Swiss mice; 0.125 mg/kg): significantly reduced

Cc1c(C(=O)c2cccc3ccccc23)c2cccc3c2n1[C@H](CN1CCOCC1)CO3 [WIN55,512-2]
antinociception in the tail-flick test (OF1 mice [3]): significant antinociceptive
catalepsy (OF1 mice [3]): cataleptic
duration of antinociceptive, hypothermic and cataleptic effects (OF1 mice [3]): at least 4 hours
hypothermia (OF1 mice [3]): hypothermic
locomotor activity (OF1 mice [3]): decreased significantly

O=C(Oc1ccc([N+](=O)[O-])cc1)N1CCC(C(O)(c2ccc3c(c2)OCO3)c2ccc3c(c2)OCO3)CC1 [JZL184]
dose impairing MWM performance (dose that also inhibits FAAH) (mice): 40 mg/kg

CN1C(=O)CN=C(c2ccccc2)c2cc(Cl)ccc21 [diazepam]
protection in the PTZ test (OF1 mice [4]): full protection
percentage of time in open arms (OF1 mice [5]): opposite effects

Cc1c(C(=O)NN2CCCCC2)nn(-c2ccc(Cl)cc2Cl)c1-c1ccc(Cl)cc1 [rimonabant]
blockade of the anti-writhing effects of SAR127303 [6]: blocked
reversal of the effect of 2-AG at 10^−8 mol/L on [3H]-ACh release (rat hippocampal slices): completely reversed
novelty index ratio when coadministered with SAR127303 (Swiss mice; rimonabant 3 mg/kg + SAR127303 1 mg/kg): significantly different from chance level
